Data from patent publication US9937227B2, “Humanin, analogs and cancer treatment methods and uses thereof” (LOS ANGELES BIOMEDICAL RESEARCH INSTITUTE AT HARBOR-UCLA …, priority 2014, dated 2018).
“And” between values parts separate entries of the source, which are not always exact repeats. Equal entries are not always repeated. Where two headings read alike, the source gives them in different places.

Columns and labels:
male germ cells [1] = details: 24 hours
Description: Young adult mice (12-13 weeks) were randomly divided into 4 groups with 4 or 5 mice per group and received an IP injection: control (Con) (saline), HN (40 mg/Kg BW), CP (200 mg/Kg BW), and the combination of CP+HN. These experiments were repeated four times. In the CP+HN group, mice received an injection of HN followed by an injection of CP about 15 minutes later. Twenty-four hours after injections animals were sacrificed using 5% pentobarbital (200 mg/kg BW) IP injection. Blood was collected and one testis was removed, weighed and frozen in liquid nitrogen. The mouse was next perfused with saline and then subsequently perfuse-fixed with Bouin's solution as previously described and apoptosis was assessed by TUNEL assay (Lue, et al., 2009).
For detection of apoptosis in testicular sections, the paraffin embedded testis tissue was cut into 5 micron sections and stained with the TdT-mediated dUTP nick-end labeling assay (TUNEL Apoptosis Detection Kit, Millipore, Billerica, Mass.) to detect apoptosis of germ cells in the testis (Lue, et al., 2009). Testicular sections assayed by TUNEL were examined under a light microscope and the apoptotic germ cells were blindly and manually counted. The seminiferous tubules in the testis section under the microscope were grouped as stages IX-IV (early-late stages of spermatogenesis) and V-VIII (middle stages of spermatogenesis). Germ cell apoptosis was quantified as the number of seminiferous tubules containing apoptotic spermatogonia, spermatoctyes, round spermatids and spermatozoa per 100 seminiferous tubules (Drumond, et al., 2011).

male germ cells [2] = format: in vivo, mouse; details: B16 tumor-bearing mice; CP 200 mg/Kg single IP, 2 weeks
Description: A total of 25 young adult mice (10-12 weeks) were randomly divided into 5 groups (n=5 per group). Five mice were used as control. Twenty mice were inoculated intravenously with B16 murine melanoma cells (2×10^5 cells/mouse). Among these 20 tumor-inoculated mice, 5 mice received no further treatment. After one week, the remaining 15 mice were divided into 3 groups and injected with: 1) HNG daily IP (5 mg/Kg body weight) for 2 weeks; 2) CP (200 mg/Kg body weight IP single injection); 3) combined CP with HNG treatment (same doses as above). All mice were sacrificed 3 weeks after tumor inoculation, and 2 weeks after HNG and/or CP treatment. The animals were sacrificed with 5% pentobarbital (200 mg/kg body weight) IP injection after which blood was collected from the right atrium of the heart. One of the testes from each mouse was immersed fixed in Bouin's solution, and the mice were perfused with saline and subsequently perfuse-fixed with 5% glutaraldehyde in 0.05 M cacodylate buffer (pH 7.4). The lungs were dissected out and post fixed in 5% glutaraldehyde solution for 24 hours and stored in cacodylate buffer at 4° C. for the subsequent tumor count (Lue, et al., 2010; Lue, et al., 2009).

male germ cells [3] = format: in vivo; details: middle stages (VII-VIII); same doses; 24 hours; monohydrate
Description: For the HN analog experiments, male mice were divided into seven groups (n=4-5 per group) and received one of the following treatments and sacrificed after 24 hours: 1) vehicle (control); 2) a single intra-peritoneal (IP) injection of HN peptide [HN, 40 mg/Kg body weight (BW)]; 3) a single IP injection of CP (CP, 200 mg/Kg BW); 4) IP injection of CP and HN (CP+HN); 5) a single IP injection of each HN analog (HNG 5 mg/Kg BW, HNG-F6A 5 mg/Kg BW, HN-S7A 40 mg/Kg BW, HN-C8P 40 mg/Kg BW, or HN-L12A 40 mg/Kg BW); 6) IP injection of CP and each HN analog (CP+HNG, HNG-F6A, HN-S7A, HN-C8P, or HN-L12A); and 7) IP injection of CP+HN+HN analog (HN-S7A, HN-C8P, or HN-L12A; to assess whether the analogs has enhancing or inhibitory effect on HN).
To facilitate testicular fixation by using a whole-body perfusion technique, all animals were injected with heparin (130 IU/100 g BW, IP) 15 min before a lethal injection of sodium pentobarbital (200 mg/kg BW, IP) (Lue Y H, et al., 1999). One testis was removed and weighed after perfusion with saline. Portions of testicular parenchyma were snap frozen in liquid nitrogen, and stored at −80 C for Western blotting. The other testis was fixed by vascular perfusion with Bouin's solution, and processed with routine paraffin embedding for in situ detection of apoptosis.
Detection of apoptotic cells was performed in Bouin's'-fixed, paraffin-embedded testicular sections by the terminal deoxynucleotidyl transferase (TdT)-mediated deoxy-UTP nick end labeling (TUNEL) technique (Sinha Hikim A P, et al., 1997) using an ApopTag-peroxidase kit (Chemicon International, Inc., Temecula, Calif.). Enumeration of the Sertoli cell nuclei with distinct nucleoli and apoptotic germ cell population was quantified at stages I-IV (early stages), stages VII-VIII (middle stages) and stages XI-XII (late stages) of the seminiferous epithelial cycle using an Olympus BH-2 microscope (New Hyde Park, N.Y.). Stages were identified according to the criteria proposed by Russell et al for paraffin sections (Russell L, 1977). The rate of germ cell apoptosis (apoptotic index, AI) was expressed as the number of apoptotic germ cells per Sertoli cells (Sinha Hikim A P, et al., 1997).

4T1 mammary cancer = assay: 4T1 mouse mammary cancer model, tumor size and weight; details: in vivo
Description: A mouse mammary cancer model was used which utilizes 4T1 cells transfected with the luciferase gene. Growth and size of 4T1 mammary tumors were detected by bioluminescence imaging (IVIS Luminia II, Perkin Elmer, Waltham, Mass.). Mice (n=5 to 7 per group) were inoculated with 1×10^6 4T1 cells into the right third mammary gland, and 7 days later they were left untreated or treated with HNG (5 mg/kg/day IP), CP (100 mg/Kg single IP) or HNG+CP for 14 days. Bioluminescence imaging was conducted at days 7 and 12. Animals were sacrificed and tumors were removed on day 14 after the start of treatment. Mammary tumors were smaller in CP and CP+HNG groups compared to the untreated and HNG-treated animals (Data images not shown).

IGF-1 = assay: Plasma IGF-1 in mice bearing metastatic lung melanomas; format: in vivo, mouse; details: 14 days; HNG 5 mg/kg/day IP, CP 200 mg/kg IP single injection
Description: These preliminary data support a concept that HN is a caloric restriction mimetic, and its cytotoxic effects in cancer may be mediated by lowering IGF-1 without increasing GH and insulin.

germ cells = details: HNG 5 mg/kg/BW IP or CP 200 mg/kg/BW IP, 24 hours
Description: To examine the protective effects of HNG on germ cells, adult mice were treated with vehicle (control); HNG (5 mg/kg/BW, intraperitoneal injection IP); CP (200 mg/kg/BW, IP); and CP+HNG for 24 hours.

testosterone = details: with or without EDS pre-treatment

## O=P1(N(CCCl)CCCl)NCCCO1 (centres unmarked) [CP, cyclophosphamide monohydrate]
Male germ cells [1]; early-late stages of spermatogenesis, CP 200 mg/Kg IP
  germ cell apoptosis compared to control: significantly increased germ cell apoptosis
Male germ cells [1]; middle stages (V-VIII), CP 200 mg/Kg IP
  germ cell apoptosis compared to control: significant increase in apoptosis
Male germ cells [1]; testicular cross sections, HN 40 mg/Kg or CP 200 mg/Kg single IP
  germ cell apoptosis compared to control: significantly increased germ cell apoptosis
Male germ cells [2]
  germ cell apoptosis compared to control and HNG treated mice: further significantly increased
  testis weight in comparison with control, non-treated tumor bearing and HNG treated mice: significantly decreased
Male germ cells [3]
  apoptotic index (AI, apoptotic germ cells per Sertoli cell): 0.25±0.03 and 0.33±0.03
4T1 mammary cancer
  mammary tumor size and weight: smaller
IGF-1
  plasma IGF-1 levels: modestly suppressed
Germ cells
  germ cell apoptosis vs control: significantly increased
testosterone
  intratesticular testosterone levels: no significant effects
  serum testosterone levels: no significant effects
